Laboratory results from publication PMC3469418, “New Partners in Regulation of Gene Expression: The Enhancer of Trithorax and Polycomb Corto Interacts with Methylated Ribosomal Protein L12 Via Its Chromodomain” (PLoS Genetics, 2012).
Read-outs that look alike come from different tables or passages of the source. Where a SMILES comes first, the peptide text is derived from it. Where no end group is shown, it is not given here. [ ]: non-standard residue; d: D form. Lys(Me3) = C[N+](C)(C)CCCC[C@H](N)C(=O)O; Lys(Me2) = CN(C)CCCC[C@H](N)C(=O)O

Key:
[1] = target: T1, Corto chromodomain (GST-CortoCD) (Drosophila melanogaster, UniProt P41046); assay: Biacore real-time binding of peptides to immobilized GST-CortoCD; settings: for kon: pH 7.4, Figure 5B, Biacore 3000, CM5 chip, peptides 1 to 10 µM in running buffer (10 mM Hepes pH7.4, 150 mM NaCl), 5 µL/min for 5 min, 1:1 Langmuir fit, read-out: CortoCD Ka
T1 construct: Over-expression of the Corto chromodomain (CortoCD); made in house
T1 sequence (P41046 127-203 limits assumed): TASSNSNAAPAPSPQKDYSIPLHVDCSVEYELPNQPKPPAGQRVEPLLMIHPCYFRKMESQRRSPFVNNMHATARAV
Procedure: (§1) To test whether Corto directly interacted with RPL12 lysine 3, we measured real-time binding between CortoCD and several RPL12 peptides using Biacore. GST-CortoCD and GST were immobilized on a CM5 sensor chip. Then, several RPL12 peptides [unmodified (RPL12um), methylated on lysine 3 (RPL12K3me2, RPL12K3me3), methylated on lysine 10 (RPL12K10me3) or lysine 3 mutated (RPL12K3A)] were assayed for their binding to GST-CortoCD or GST (Figure 5, Figure S3).
(D) Equilibrium dissociation constant (KD) calculated from CortoCD or HP1CD interacting with unmethylated or trimethylated histone H3 peptides. For H3K9me3, peptide concentration was increased from 0 to 1 µM. For RPL12 and H3K27me3 peptide concentration was increased from 0 to 10 µM. NB: no binding; nd: not determined.
(§2) GST or GST fusion proteins were dialyzed using a Slide-A-Lyser cassette (Thermo Scientific) in running buffer (10 mM Hepes pH7.4, 150 mM NaCl, 3 mM EDTA, 0.005% P20 surfactant) (GE Healthcare). Real-time protein interaction assays were performed using a Biacore 3000. Kinetics and binding tests were first performed on empty surfaces. Data presented here result from substraction of empty surface RU (1 to 5 depending on the experiment) from active surface RU. GST was covalently coupled to a CM5 sensor chip (GE Healthcare) via its N-terminal amino acid. The carboxymethylated dextran surface was activated by injecting a mixture of 0.2 M 1-ethyl-3-(3-dimethylaminopropyl) and 0.05 M N-hydroxysuccinimide. GST was immobilized on the chip by injecting a 30 µg.mL^−1 solution in NaAc pH5 buffer. GST-CortoCD and GST-HP1CD were immobilized by injecting a 100 µg.mL^−1 solution in the same buffer. Binding tests were performed by injecting peptides at 1 or 10 µM in running buffer at a flow rate of 5 µL.min^−1 during 5 min. Kinetic assays were performed only when the binding test was positive. […] To calculate association constants, peptides were diluted in series from 1 to 10 µM in running buffer and dilutions were injected sequentially at a flow rate of 5 µL.mn^−1 during 5 min. Dissociation kinetics were then run during 10 min to calculate dissociation constants. Between assays, the chip was regenerated with 10 mM glycine pH2.0. Kinetic constants were calculated with BIAevaluation Software (Biacore) using the Fit kinetic simultaneous ka/kd (1∶1 binding; Langmuir algorithm). RPL12 peptides were synthesized at the IFR83 Peptide synthesis facility (Table S13). Histone peptides were provided by Diagenode (H3K27me3: sp-069-050; H3K4me3: sp-003-050; H3K9me3: sp-056-050; H3K4/K9um: sp-999-050; H3K27um: sp-998-050).

[2] = target: HP1 chromodomain (GST-HP1CD) (Drosophila melanogaster, UniProt P05205); assay: Biacore real-time binding of peptides to immobilized GST-HP1CD
Procedure: Figure 5 Preferential binding of Corto chromodomain to RPL12 trimethylated on lysine 3. (A) Biacore sensorgrams showing binding of either RPL12 unmethylated peptide (RPL12 um, left panel) or RPL12 peptide trimethylated on lysine 3 (RPL12K3me3, right panel) to CortoCD. Increasing concentrations of RPL12 um or RPL12K3me3 peptides were used [from 0 (light grey lines) to 10 µM (darker grey to black lines]. Binding (Y-axis, Response) is expressed in Resonance Units (RU) relative to time (X-axis). Note the response due to end of injection of the peptides at 300 s. (B) Kinetic parameters of interaction between CortoCD and RPL12 um, RPL12K3me2 or RPL12K3me3 peptides. Note that CortoCD interacts specifically with RPL12 trimethylated on lysine 3 (KD = 8 µM). (C) Equilibrium dissociation constant (KD) calculated for CortoCD or HP1CD in interaction with RPL12 um peptide, RPL12 methylated peptides, or RPL12K3A peptide. Note that CortoCD specifically binds to RPL12K3me3 (KD<100 µM). (D) Equilibrium dissociation constant (KD) calculated from CortoCD or HP1CD interacting with unmethylated or trimethylated histone H3 peptides. For H3K9me3, peptide concentration was increased from 0 to 1 µM. For RPL12 and H3K27me3 peptide concentration was increased from 0 to 10 µM. NB: no binding; nd: not determined. TEXT PRINTED IN THE PICTURE: (B) RpL12um: CortoCD Ka ( M^-1s^-1): 1.2; CortoCD Kd ( s^-1): 7.6.10^-4; CortoCD KD (μM): 624 | (B) RpL12K3me2: CortoCD Ka ( M^-1s^-1): 4.1; CortoCD Kd ( s^-1): 9.9.10^-4; CortoCD KD (μM): 238 | (B) RpL12K3me3: CortoCD Ka ( M^-1s^-1): 106; CortoCD Kd ( s^-1): 8.2.10^-4; CortoCD KD (μM): 8 | (C) RpL12um: CortoCD: 624; HP1CD: > 1000 | (C) RpL12K3me2: CortoCD: 238 | (C) RpL12K3me3: CortoCD: 8; HP1CD: 292 | (C) RpL12K10me3: CortoCD: NB; HP1CD: NB | (C) RpL12K3A: CortoCD: NB; HP1CD: NB | (D) H3K4me3: CortoCD: NB; HP1CD: NB | (D) H3K9me3: CortoCD: NB; HP1CD: 0.4 | (D) H3K27me3: CortoCD: NB; HP1CD: 0.7 | (D) H3um: CortoCD: NB; HP1CD: NB | (D) H3K27um: CortoCD: NB; HP1CD: NB DOUBTS OF THE COPYIST ABOUT THIS PICTURE: Panels C and D: the picture prints no measure or unit for the table values, so they are given with the row head only / Panel C, RpL12K3me2, HP1CD: the cell prints 'nd', which is not a result and is left out
To investigate whether RPL12K3me3 could bind to other chromodomains, we repeated these experiments using that of HP1 (HP1CD). GST-HP1CD was immobilized on the sensor chip and binding of either RPL12, RPL12K3me3, RPL12K10me3 or RPL12K3A was tested. None of these peptides specifically interacted with HP1CD (KD>200 µM) (Figure 5C, Figure S3). […] No binding of unmodified H3, H3K27me3, H3K9me3 or H3K4me3 peptides was observed (Figure 5D) while, as expected, the H3K9me3 peptide bound HP1CD with high affinity (KD = 0.4 µM).
GST or GST fusion proteins were dialyzed using a Slide-A-Lyser cassette (Thermo Scientific) in running buffer (10 mM Hepes pH7.4, 150 mM NaCl, 3 mM EDTA, 0.005% P20 surfactant) (GE Healthcare). Real-time protein interaction assays were performed using a Biacore 3000. Kinetics and binding tests were first performed on empty surfaces. Data presented here result from substraction of empty surface RU (1 to 5 depending on the experiment) from active surface RU. GST was covalently coupled to a CM5 sensor chip (GE Healthcare) via its N-terminal amino acid. The carboxymethylated dextran surface was activated by injecting a mixture of 0.2 M 1-ethyl-3-(3-dimethylaminopropyl) and 0.05 M N-hydroxysuccinimide. […]

[3] = target: T2, GST (Schistosoma japonicum, UniProt P08515); assay: Biacore real-time binding of peptides to immobilized GST (control surface); settings: binding test, peptides at 1 or 10 µM
T2 construct: made in house
Procedure: as §1
as §2, with “RPL12 peptides were synthesized at the IFR83 Peptide synthesis facility (Table S13). Histone peptides were provided by Diagenode (H3K27me3: sp-069-050; H3K4me3: sp-003-050; H3K9me3: sp-056-050; H3K4/K9um: sp-999-050; H3K27um: sp-998-050).” left out

[4] = >200 µM = no specific interaction, read-out: KD for HP1CD

Chain of HP1 chromodomain (GST-HP1CD) (P05205 24-82 limits assumed): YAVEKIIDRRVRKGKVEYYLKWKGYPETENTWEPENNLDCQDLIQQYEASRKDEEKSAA
T2 sequence (P08515 whole entry): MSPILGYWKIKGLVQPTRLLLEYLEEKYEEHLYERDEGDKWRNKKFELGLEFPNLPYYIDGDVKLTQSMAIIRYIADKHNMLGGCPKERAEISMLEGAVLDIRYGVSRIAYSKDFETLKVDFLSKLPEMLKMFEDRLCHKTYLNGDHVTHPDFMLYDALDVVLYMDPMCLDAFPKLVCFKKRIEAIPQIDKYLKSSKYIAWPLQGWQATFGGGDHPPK

| Compound | Kd [1] | kon [1] | Kd [2, 4] | binding of RPL12 peptides to GST (in words) [3] | Kd ([2]; Figure 5C, RPL12 peptides 0 to 10 µM, NB = no binding, read-out: Equilibrium dissociation constant (KD), HP1CD) |
| --- | --- | --- | --- | --- | --- |
| CC(C)C[C@H](NC(=O)[C@H](Cc1ccc(O)cc1)NC(=O)[C@@H](NC(=O)[C@H](CC(C)C)NC(=O)[C@H](CCCCN)NC(=O)[C@@H](NC(=O)[C@H](CCC(=O)O)NC(=O)[C@@H](NC(=O)[C@@H]1CCCN1C(=O)[C@H](CC(=O)O)NC(=O)[C@H](Cc1ccccc1)NC(=O)[C@H](CCCCN(C)C)NC(=O)[C@@H]1CCCN1C(=O)[C@@H]1CCCN1)[C@@H](C)O)C(C)C)C(C)C)C(=O)N[C@@H](CCCNC(=N)N)C(=O)N[C@@H](CS)C(=O)N[C@H](C(=O)NCC(=O)NCC(=O)N[C@@H](CCC(=O)O)C(=O)N[C@H](C(=O)NCC(=O)N[C@@H](C)C(=O)O)C(C)C)C(C)C [RpL12K3me2] (H-PP[Lys(Me2)]FDPTEVKLVYLRCVGGEVGA-OH) | > 200 µM | 4.1 M⁻¹ s⁻¹ | – | – | – |
| CC(C)C[C@H](NC(=O)[C@H](Cc1ccc(O)cc1)NC(=O)[C@@H](NC(=O)[C@H](CC(C)C)NC(=O)[C@H](CCCCN)NC(=O)[C@@H](NC(=O)[C@H](CCC(=O)O)NC(=O)[C@@H](NC(=O)[C@@H]1CCCN1C(=O)[C@H](CC(=O)O)NC(=O)[C@H](Cc1ccccc1)NC(=O)[C@H](CCCC[N+](C)(C)C)NC(=O)[C@@H]1CCCN1C(=O)[C@@H]1CCCN1)[C@@H](C)O)C(C)C)C(C)C)C(=O)N[C@@H](CCCNC(=N)N)C(=O)N[C@@H](CS)C(=O)N[C@H](C(=O)NCC(=O)NCC(=O)N[C@@H](CCC(=O)O)C(=O)N[C@H](C(=O)NCC(=O)N[C@@H](C)C(=O)O)C(C)C)C(C)C [RpL12K3me3] (H-PP[Lys(Me3)]FDPTEVKLVYLRCVGGEVGA-OH) | 8 µM | 106 M⁻¹ s⁻¹ | > 200 µM | – | – |
| CC(C)C[C@H](NC(=O)[C@H](Cc1ccc(O)cc1)NC(=O)[C@@H](NC(=O)[C@H](CC(C)C)NC(=O)[C@H](CCCC[N+](C)(C)C)NC(=O)[C@@H](NC(=O)[C@H](CCC(=O)O)NC(=O)[C@@H](NC(=O)[C@@H]1CCCN1C(=O)[C@H](CC(=O)O)NC(=O)[C@H](Cc1ccccc1)NC(=O)[C@H](CCCCN)NC(=O)[C@@H]1CCCN1C(=O)[C@@H]1CCCN1)[C@@H](C)O)C(C)C)C(C)C)C(=O)N[C@@H](CCCNC(=N)N)C(=O)N[C@@H](CS)C(=O)N[C@H](C(=O)NCC(=O)NCC(=O)N[C@@H](CCC(=O)O)C(=O)N[C@H](C(=O)NCC(=O)N[C@@H](C)C(=O)O)C(C)C)C(C)C [RpL12K10me3] (H-PPKFDPTEV[Lys(Me3)]LVYLRCVGGEVGA-OH) | > 200 µM | – | > 200 µM | None of these peptides bound GST | – |
| H-PPAFDPTEVKLVYLRCVGGEVGA-OH [RpL12K3A] | > 200 µM | – | > 200 µM | None of these peptides bound GST | – |
| PPKFDPTEVKLVYLRCVGGEVGA [RpL12um] | > 200 µM | 1.2 M⁻¹ s⁻¹ | > 200 µM | None of these peptides bound GST | > 1000 µM |
